Like-named read-outs stand apart in the source and are kept apart here.
How the values were obtained:
Erysiphe graminis hordei = experiment: foliar fungal disease control, Erysiphe graminis hordei on barley; format: in vivo; details: inoculated 24 hours before treatment
Experimental: (§1) The compounds were tested against a variety of foliar fungal diseases of plants. The technique employed was as follows.
(§2) The plants were grown in John Innes Potting Compost (No 1 or 2) in 4 cm diameter minipots. The test compounds were formulated either by bead milling with aqueous Dispersol T or as a solution in acetone or acetone/ethanol which was diluted to the required concentration immediately before use. […] The sprays were applied to maximum retention and the root drenches to a final concentration equivalent to approximately 40 ppm a.i./dry soil. Tween 20, to give a final concentration of 0.05%, was added when the sprays were applied to cereals.
(§3) For most of the tests the compound was applied to the soil (roots) and to the foliage (by spraying) one or two days before the plant was inoculated with the disease. An exception was the test on Erysiphe graminis in which the plants were inoculated 24 hours before treatment. Foliar pathogens were applied by spray as spore suspensions onto the leaves of test plants. After inoculation, the plants were put into an appropriate environment to allow infection to proceed and then incubated until the disease was ready for assessment. The period between inoculation and assessment varied from four to fourteen days according to the disease and environment.
(§4) The disease control was recorded by the following grading: […]

Venturia inaequalis = experiment: foliar fungal disease control, Venturia inaequalis on apple; format: in vivo
Experimental: as §1, §2, §3, §4

Cercospora arachidicola = experiment: foliar fungal disease control, Cercospora arachidicola on peanut; format: in vivo
Experimental: as §1, §2, §3, §4

Plasmopara viticola = experiment: foliar fungal disease control, Plasmopara viticola on vine; format: in vivo
Experimental: as §1, §2, §3, §4

Phytophthora infestans = format: in vivo, Phytophthora infestans (tomato)
Puccinia recondita = experiment: foliar fungal disease control, Puccinia recondita on wheat; format: in vivo
Experimental: as §1, §2, §3, §4

Pyricularia oryzae = format: in vivo, Pyricularia oryzae (rice)
[1] = 100 ppm foliar spray plus root drench approx. 40 ppm a.i./dry soil

| SMILES | disease control grading, Erysiphe graminis hordei (barley) (Erysiphe graminis hordei; [1]) | disease control grading, Venturia inaequalis (apple) (Venturia inaequalis; [1]) | disease control grading, Cercospora arachidicola (peanut) (Cercospora arachidicola; [1]) | disease control grading, Plasmopara viticola (vine) (Plasmopara viticola; [1]) | disease control grading, Phytophthora infestans (tomato) (Phytophthora infestans; [1]) | disease control grading, Puccinia recondita (wheat) (Puccinia recondita; [1]) | disease control grading, Pyricularia oryzae (rice) (Pyricularia oryzae; [1]) | disease control grading, Erysiphe graminis hordei (barley) (Erysiphe graminis hordei; 40 ppm foliar spray only) | disease control grading, Venturia inaequalis (apple) (Venturia inaequalis; 40 ppm foliar spray only) | disease control grading, Cercospora arachidicola (peanut) (Cercospora arachidicola; 40 ppm foliar spray only) | disease control grading, Plasmopara viticola (vine) (Plasmopara viticola; 40 ppm foliar spray only) | disease control grading, Phytophthora infestans (tomato) (Phytophthora infestans; 40 ppm foliar spray only) | disease control grading, Puccinia recondita (wheat) (Puccinia recondita; 40 ppm foliar spray only) | disease control grading, Pyricularia oryzae (rice) (Pyricularia oryzae; 40 ppm foliar spray only) |
| --- | --- | --- | --- | --- | --- | --- | --- | --- | --- | --- | --- | --- | --- | --- |
| CO/C=C(/C(=O)OC)c1ccccc1Sc1ccc(Br)cn1 [Compound 15 (Table II), (E)-methyl 2-[2'-(5"-bromopyridin-2"-ylthio)phenyl]-3-methoxyacrylate] | 3 (trace-5% of disease on untreated plants) | 0 (60-100% of disease on untreated plants) | 1 (26-59% of disease on untreated plants) | 4 | 0 (60-100% of disease on untreated plants) | 2 (6-25% of disease on untreated plants) | 0 (60-100% of disease on untreated plants) | – | – | – | – | – | – | – |
| CO/C=C(/C(=O)OC)c1ccccc1Oc1ccc(C)cn1 [Compound 16 (Table I)] | 4 | 4 | 4 | 4 | 4 | 2 (6-25% of disease on untreated plants) | 4 | – | – | – | – | – | – | – |
| CO/C=C(/C(=O)OC)c1ccccc1Oc1cccc(C)n1 [Compound 21 (Table I)] | 4 | 4 | 4 | 4 | 3 (trace-5% of disease on untreated plants) | 3 (trace-5% of disease on untreated plants) | 4 | – | – | – | – | – | – | – |
| CO/C=C(/C(=O)OC)c1ccccc1Oc1cccc(C(F)(F)F)n1 [Compound 22 (Table I)] | 4 | 4 | 4 | 4 | 3 (trace-5% of disease on untreated plants) | 4 | 4 | – | – | – | – | – | – | – |
| CO/C=C(/C(=O)OC)c1ccccc1Oc1nccc(Cl)n1 [Compound 61 (Table I), (E)-methyl 2-[2'-(4"-chloropyrimidin-2"-yloxy)phenyl]-3-methoxyacrylate] | 4 | 4 | 4 | 1 (26-59% of disease on untreated plants) | 0 (60-100% of disease on untreated plants) | 3 (trace-5% of disease on untreated plants) | 0 (60-100% of disease on untreated plants) | – | – | – | – | – | – | – |
| CO/C=C(/C(=O)OC)c1ccccc1Oc1ncc(Cl)cn1 [Compound 67 (Table I)] | – | – | – | – | – | – | – | 2 (6-25% of disease on untreated plants) | 0 (60-100% of disease on untreated plants) | 4 | 4 | 0 (60-100% of disease on untreated plants) | 3 (trace-5% of disease on untreated plants) | 0 (60-100% of disease on untreated plants) |
| CO/C=C(/C(=O)OC)c1ccccc1Oc1ncc(C(F)(F)F)cc1[N+](=O)[O-] [Compound 129 (Table I)] | 4 | 4 | 0 (60-100% of disease on untreated plants) | 0 (60-100% of disease on untreated plants) | 0 (60-100% of disease on untreated plants) | 0 (60-100% of disease on untreated plants) | 0 (60-100% of disease on untreated plants) | – | – | – | – | – | – | – |
| CO/C=C(/C(=O)OC)c1ccccc1Oc1ccc(NC=O)cn1 [Compound 130 (Table I)] | 0 (60-100% of disease on untreated plants) | 0 (60-100% of disease on untreated plants) | 4 | 0 (60-100% of disease on untreated plants) | 0 (60-100% of disease on untreated plants) | 3 (trace-5% of disease on untreated plants) | 0 (60-100% of disease on untreated plants) | – | – | – | – | – | – | – |
| CO/C=C(/C(=O)OC)c1ccccc1Oc1ccc(N)cn1 [Compound 131 (Table I)] | 0 (60-100% of disease on untreated plants) | 0 (60-100% of disease on untreated plants) | 0 (60-100% of disease on untreated plants) | 0 (60-100% of disease on untreated plants) | 0 (60-100% of disease on untreated plants) | 3 (trace-5% of disease on untreated plants) | 0 (60-100% of disease on untreated plants) | – | – | – | – | – | – | – |
| CO/C=C(/C(=O)OC)c1ccccc1Oc1nc(F)cc(F)n1 [Compound 137 (Table I)] | 0 (60-100% of disease on untreated plants) | 4 | 0 (60-100% of disease on untreated plants) | 0 (60-100% of disease on untreated plants) | 0 (60-100% of disease on untreated plants) | 2 (6-25% of disease on untreated plants) | 0 (60-100% of disease on untreated plants) | – | – | – | – | – | – | – |
| CO/C=C(/C(=O)OC)c1ccccc1Oc1cc(F)nc(F)n1 [Compound 138 (Table I)] | 0 (60-100% of disease on untreated plants) | 3 (trace-5% of disease on untreated plants) | 0 (60-100% of disease on untreated plants) | 4 | 0 (60-100% of disease on untreated plants) | 4 | 0 (60-100% of disease on untreated plants) | – | – | – | – | – | – | – |
| CO/C=C(/C(=O)OC)c1ccccc1Oc1cc(C(Cl)(Cl)Cl)nc(Cl)n1 [Compound 139 (Table I)] | 0 (60-100% of disease on untreated plants) | 0 (60-100% of disease on untreated plants) | 4 | 4 | 0 (60-100% of disease on untreated plants) | 4 | 2 (6-25% of disease on untreated plants) | – | – | – | – | – | – | – |
